Target: T1, recombinant human Syk (GST-hSyk fusion protein) (Homo sapiens, UniProt P43405)
T1 construct: purchased Carna Biosciences 08-176
Experiment: Homogeneous Time-Resolved Fluorescence (HTRF) assay for the recombinant human Syk enzyme
Format: biochemical
Details: 10-dose titration, 25 μM ATP; read-out: rhSYK IC50
Outline: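 GST-hSyk (5 pM) preincubated 10 min with compound (0.1% DMSO) in 15 mM Tris-HCl pH 7.5, 2 mM DTT; reaction started with 250 nM biotinylated peptide, 5 mM Mg, 25 μM ATP, 45 min, room temperature. EDTA quench, Eu-anti-phosphotyrosine/SA-APC HTRF read after 30 min; IC50 from 10-dose titration (10 μM–0.508 nM), four-parameter fit.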

Row | IC50 | Compound
1 | 25.2 nM | Cc1cc(Nc2nccc(C(F)F)n2)cc(-c2cnn(CCNC(=O)C3CC3)c2)c1 [Example 26.1, N-(2-(4-(3-((4-(Difluoromethyl)pyrimidin-2-yl)amino)-5-methylphenyl)-1H-pyrazol-1-yl)ethyl)cyclopropanecarboxamide]
2 | 2.6 nM | Cc1cc(Nc2nccc(C(F)F)n2)cc(-c2cnn(C3CCCCC(O)C3O)c2)c1 (stereo not shown) [Example 22.15, 3-[4-(3-{[4-(difluoromethyl)pyrimidin-2-yl]amino}-5-methylphenyl)-1H-pyrazol-1-yl]cycloheptane-1,2-diol]

Same assay, conditions: IC50 class; 10-dose titration, 25 μM ATP; read-out: rhSYK Activity

Row | Compound | IC50
3 | Cc1cc(Nc2nccc(C(F)F)n2)cc(-c2cnn(CC3(C)CNC(=O)C3)c2)c1 (stereo not shown) [Example 2.77, 4-{[4-(3-{[4-(difluoromethyl)pyrimidin-2-yl]amino}-5-methylphenyl)-1H-pyrazol-1-yl]methyl}-4-methylpyrrolidin-2-one] | ≤ 100 nM
4 | Cc1cc(Nc2nccc(C)n2)cc(-c2cnn(C3CCC(C(=O)O)CC3)c2)c1 (stereo not shown) [Example 1.59, 4-(4-{3-methyl-5-[(4-methylpyrimidin-2-yl)amino]phenyl}-1H-pyrazol-1-yl)cyclohexanecarboxylic acid] | ≤ 100 nM
5 | Cc1cc(Nc2nccc(C(F)F)n2)cc(-c2cnn(CC(O)CC3(O)CCCCC3)c2)c1 (stereo not shown) [Example 5.27, 1-{3-[4-(3-{[4-(difluoromethyl)pyrimidin-2-yl]amino}-5-methylphenyl)-1H-pyrazol-1-yl]-2-hydroxypropyl}cyclohexanol] | ≤ 100 nM
6 | Cc1cc(Nc2nccc(C(F)(F)F)n2)cc(-c2cnn(CC(O)C(=O)O)c2)c1 (racemic) [Example 5.14, 2-hydroxy-3-[4-(3-methyl-5-{[4-(trifluoro-methyl)pyrimidin-2-yl]amino}-phenyl)-1H-pyrazol-1-yl]propanoic acid] | ≤ 100 nM
7 | Cc1cc(Nc2cc(C3CC3)ccn2)nc(-c2cnn(CCC(=O)O)c2)c1 [Example 1.22, 3-(4-{6-[(4-cyclopropylpyridin-2-yl)amino]-4-methylpyridin-2-yl}-1H-pyrazol-1-yl)propanoic acid] | ≤ 100 nM
8 | CCOC(=O)CCn1cc(-c2cc(C)cc(Nc3nccc(OC)n3)c2)cn1 [Example 2.3, ethyl 3-(4-{3-[(4-methoxypyrimidin-2-yl)amino]-5-methylphenyl}-1H-pyrazol-1-yl)-propanoate] | ≤ 100 nM
9 | Cc1cc(Nc2nccc(C(F)F)n2)cc(-c2cnn(Cc3c[nH]cn3)c2)c1 [Example 3.110, 4-(difluoromethyl)-N-{3-[1-(1H-imidazol-4-ylmethyl)-1H-pyrazol-4-yl]-5-methylphenyl}pyrimidin-2-amine] | ≤ 100 nM
10 | Cc1cc(Nc2nccc(C(F)(F)F)n2)cc(-c2c[nH]nc2C)c1 [Example 2.39, N-[3-methyl-5-(3-methyl-1H-pyrazol-4-yl)phenyl]-4-(trifluoromethyl)pyrimidin-2-amine] | 100 to 1000 nM
11 | Cc1cc(Nc2nccc(C(F)(F)F)n2)cc(-c2cnn(CC3CN(C)C(=O)O3)c2)c1 (stereo not shown) [Example 3.46] | ≤ 100 nM
12 | C[C@@](O)(CO)Cn1cc(-c2cc(F)cc(Nc3nccc(C(F)(F)F)n3)c2)cn1 [Example 2.91, (2S)-3-[4-(3-fluoro-5-{[4-(trifluoromethyl)pyrimidin-2-yl]amino}phenyl)-1H-pyrazol-1-yl]-2-methylpropane-1,2-diol] | ≤ 100 nM
13 | Cc1cc(Nc2nccc(C(F)F)n2)cc(-c2cnn(CCc3cn[nH]c3)c2)c1 [Example 3.111, 4-(difluoromethyl)-N-(3-methyl-5-{1-[2-(1H-pyrazol-4-yl)ethyl]-1H-pyrazol-4-yl}phenyl)pyrimidin-2-amine] | ≤ 100 nM
14 | N-[2-methyl-6-(1-methyl-1H-pyrazol-4-yl)pyridin-4-yl]-4-(trifluoromethyl)-pyrimidin-2-amine [Example 1.43] | 100 to 1000 nM
15 | COc1nc(Nc2cc(C)cc(-c3cnn(CC4CNC(=O)O4)c3)c2)ncc1F (stereo not shown) [Example 2.30, 5-[(4-{3-[(5-fluoro-4-methoxypyrimidin-2-yl)amino]-5-methylphenyl}-1H-pyrazol-1-yl)methyl]-1,3-oxazolidin-2-one] | ≤ 100 nM
16 | CC(=O)Nc1cc(Nc2nccc(C(F)(F)F)n2)cc(-c2cnn(C3CCC(C(=O)O)CC3)c2)c1 (stereo not shown) [Example 1.52, 4-{4-[3-(acetylamino)-5-{[4-(trifluoromethyl)pyrimidin-2-yl]amino}phenyl]-1H-pyrazol-1-yl}cyclohexanecarboxylic acid] | ≤ 100 nM
17 | 4-{1-[4-(4-methyl-6-{[4-(trifluoromethyl)pyridin-2-yl]amino}pyridin-2-yl)-1H-pyrazol-1-yl]ethyl}pyrrolidin-2-one [Example 1.32] | ≤ 100 nM
18 | Cc1cc(Nc2nccc(C(F)(F)F)n2)cc(-c2cnn(C(C)c3ccc(C(=O)O)cc3)c2)c1 (stereo not shown) [Example 1.48, 4-{1-[4-(3-methyl-5-{[4-(trifluoromethyl)pyrimidin-2-yl]amino}phenyl)-1H-pyrazol-1-yl]ethyl}benzoic acid] | ≤ 100 nM
19 | COC(=O)C(C)n1cc(-c2cc(C)cc(Nc3nccc(C(F)(F)F)n3)c2)cn1 (stereo not shown) [Example 3.29, methyl 2-[4-[3-methyl-5-{[4-(trifluoromethyl)-pyrimidin-2-yl]amino}-phenyl)-1H-pyrazol-1-yl]propanoate] | ≤ 100 nM
20 | Cc1cc(Nc2nccc(C(F)F)n2)cc(-c2cnn(CC3OC(=O)NC34CC4)c2)c1 (stereo not shown) [Example 3.92, 7-{[4-(3-{[4-(difluoromethyl)pyrimidin-2-yl]amino}-5-methylphenyl)-1H-pyrazol-1-yl]methyl}-6-oxa-4-azaspiro[2.4]heptan-5-one] | ≤ 100 nM
21 | Cc1cc(Nc2nccc(C(F)F)n2)cc(-c2cn[nH]c2)c1 [Example 1.65, 4-(difluoromethyl)-N-[3-methyl-5-(1H-pyrazol-4-yl)phenyl]pyrimidin-2-amine] | ≤ 100 nM
22 | CCOC(=O)CCn1cc(-c2cc(C)cc(Nc3nccc(C(F)(F)F)n3)c2)cn1 [Example 2.43, ethyl 3-[4-(3-methyl-5-{[4-(trifluoromethyl)pyrimidin-2-yl]amino}phenyl)-1H-pyrazol-1-yl]propanoate] | ≤ 100 nM
23 | COc1ccc2c(-c3cc(C)cc(Nc4nccc(C(F)(F)F)n4)c3)cnn2n1 [Example 2.36, N-[3-(6-methoxypyrazolo[1,5-b]pyridazin-3-yl)-5-methylphenyl]-4-(trifluoromethyl)pyrimidin-2-amine] | ≤ 100 nM
24 | Cc1cc(Nc2cc(C(F)(F)F)ccn2)nc(-c2cnn(CC(=O)O)c2)c1 [Example 1.31, [4-(4-methyl-6-{[4-(trifluoromethyl)pyridin-2-yl]amino}pyridin-2-yl)-1H-pyrazol-1-yl]acetic acid] | ≤ 100 nM
25 | CCOC(=O)CCn1cc(-c2cc(C)cc(Nc3cc(C)c(Cl)cn3)n2)cn1 [Example 1.25, ethyl 3-(4-{6-[(5-chloro-4-methylpyridin-2-yl)amino]-4-methylpyridin-2-yl}-1H-pyrazol-1-yl)propanoate] | 100 to 1000 nM

Now from value to compound:

Row | IC50 | Compound
26 | ≤ 100 nM | Cc1cc(Nc2nccc(C(F)F)n2)cc(-c2cnn(CCNC(=O)C3CC3)c2)c1 [Example 26.1, N-(2-(4-(3-((4-(Difluoromethyl)pyrimidin-2-yl)amino)-5-methylphenyl)-1H-pyrazol-1-yl)ethyl)cyclopropanecarboxamide]
27 | ≤ 100 nM | Cc1cc(Nc2nccc(C(F)(F)F)n2)cc(-c2cnn(CCS(N)(=O)=O)c2)c1 [9.2]
28 | ≤ 100 nM | Cc1ccnc(Nc2cc(C)cc(-c3cnn(CC4(O)CCC4)c3)n2)c1 [Example 29.3, 1-[(4-{4-methyl-6-[(4-methylpyridin-2-yl)amino]pyridin-2-yl}-1H-pyrazol-1-yl)methyl}cyclobutanol]
29 | ≤ 100 nM | Cc1cc(Nc2cc(C(F)(F)F)ccn2)nc(-c2cnn(C3CCC(C(N)=O)c4ccccc43)c2)c1 (stereo not shown) [Example 6.14, 4-[4-(4-methyl-6-{[4-(trifluoro-methyl)-pyridin-2-yl]amino}-pyridin-2-yl)-1H-pyrazol-1-yl]-1,2,3,4-tetrahydro-naphthalene-1-carboxamide]
30 | 100 to 1000 nM | Cc1cc(Nc2nccc(C(F)(F)F)n2)cc(-n2cc(C3(O)CCC(C(=O)O)C(C)(C)C3)cn2)c1 (stereo not shown) [Example 19.14, 4-hydroxy-2,2-dimethyl-4-[1-(3-methyl-5-{[4-(trifluoromethyl)pyrimidin-2-yl]amino}phenyl)-1H-pyrazol-4-yl]cyclohexanecarboxylic acid]
31 | ≤ 100 nM | Cc1cc(Nc2nccc(C(F)F)n2)cc(-c2cnn(C3CCCCC(O)C3O)c2)c1 (stereo not shown) [Example 22.15, 3-[4-(3-{[4-(difluoromethyl)pyrimidin-2-yl]amino}-5-methylphenyl)-1H-pyrazol-1-yl]cycloheptane-1,2-diol]
32 | ≤ 100 nM | Cc1cc(Nc2nccc(C(F)(F)F)n2)cc(-c2cnn(C[C@@H](O)C(N)=O)c2)c1 [Example 8.2, (2R)-2-hydroxy-3-[4-(3-methyl-5-{[4-(trifluorometh-yl)pyrimidin-2-yl]amino}phenyl)-1H-pyrazol-1-yl]propanamide]
33 | ≤ 100 nM | Cc1cc(Nc2ncc(F)c(C(F)F)n2)cc(-c2cnn(CC(C)(O)CC#N)c2)c1 (stereo not shown) [Example 20.6, 4-[4-(3-{[4-(difluoromethyl)-5-fluoropyrimidin-2-yl]amino}-5-methylphenyl)-1H-pyrazol-1-yl]-3-hydroxy-3-methylbutanenitrile]
34 | ≤ 100 nM | Cc1cc(Nc2nccc(C(F)F)n2)cc(-c2cnn(CC3OC(=O)NC3CO)c2)c1 (single isomer, unassigned) [Example 33.2, 5-{[4-(3-{[4-(difluoromethyl)pyrimidin-2-yl]amino}-5-methylphenyl)-1H-pyrazol-1-yl]methyl}-4-(hydroxymethyl)-1,3-oxazolidin-2-one]
35 | ≤ 100 nM | Cc1cc(Nc2cc(C3CC3)ccn2)nc(-n2cc(CCC(=O)O)cn2)c1 [Example 18.3, 3-(1-{6-[(4-cyclopropylpyridin-2-yl)amino]-4-methylpyridin-2-yl}-1H-pyrazol-4-yl)propanoic acid]
36 | ≤ 100 nM | Cc1cc(Nc2cc(C(F)(F)F)ccn2)nc(-c2cnn(CC(C)(O)CO)c2)c1 (stereo not shown) [Example 21.4, 2-methyl-3-[4-(4-methyl-6-{[4-(trifluoromethyl)pyridin-2-yl]amino}pyridin-2-yl)-1H-pyrazol-1-yl]propane-1,2-diol]
37 | 100 to 1000 nM | Cc1cc(Nc2nccc(C(F)(F)F)n2)cc(-c2cnn(C[C@H](O)C(=O)NCCCN3CCCC3=O)c2)c1 [Example 6.10, (2S)-2-hydroxy-3-[4-(3-methyl-5-{[4-(trifluorometh-yl)pyrimidin-2-yl]amino}phenyl)-1H-pyrazol-1-yl]-N-[3-(2-oxopyrrolidin-1-yl)propyl]propan-amide]
